# Assay results taken from PMC12876990, “Targeting secreted PLA2 interactions with EGFR and vimentin to arrest prostate tumour growth” (Cell Death & Disease, 2025).
# Square brackets hold non-standard residues; d marks the D form. Peptide text beside a SMILES is read from it. 2Nal = N[C@@H](Cc1ccc2ccccc2c1)C(=O)O
# Assays:
# Format in all cases: in vivo, male Sprague Dawley rats
# [1] = 28-day oral toxicity study: haematology analysis; conditions: for MCHC: calculated value
# Procedure: (§1) Blood analyse s (haematology and biochemistry) w ere performed on all animals on Day 29 (main groups) or Day 43 (recovery groups). Approximately 4 mL of blood was taken from ea ch animal by cardiac puncture using a 10 mL syringe and 21-gauge needle. The procedure involved anaesthetising by intraperitoneal injection of sodi um pentobarbitone using a 2 mL sterile plastic syringe attached to a 26-gauge needle (Terumo).
# For each blood sampling, the blood was divided into two aliquots: (i) one was placed into a tube containing EDTA (for whole blood and EDTA plasma), (ii) one aliquot into a Li-heparin tube.
# 3.9.1. Haematology analysis
# The following parameters were analysed: Red blood cell (RBC), haemoglobin (Hb), haematocrit (Hct), mean corpuscular volume (MCV), mean corpuscular haemoglobin (MCH), mean corpuscular haemoglobin concentration (MCHC), platelet count (PLT), mean platelet volume (MPV), white blood count (WBC), neutrophil (Neut), lymphocyte (Lymph), monocytes (Mono), eosinophil (Eos), basophil (Baso).
# Results and methods of analysis were attached in an appendix to the report (Appendix D Haematology and Biochemistry). Blood smear s for cell morphology were prepared. By convention only abnormal findings on smear evaluation were reported. […]
# (§2) Haematology and Biochemistry). […]
# (§3) (Appendix C Study Data Spreadsheets). […]
# [2] = 28-day oral toxicity study: histopathology; conditions: Gr 3, 20 mg/kg vs Gr 1
# Procedure: organs. Tissues and carcas ses were placed in 10% formalin. The tissues to be processed for histopathological examinations were fixed for at least 48 hours prior to cassette preparation.
# The organ weights and gross pathology changes a re included in a spreadsheet as an appendix to the report (Appendix C Study Data Spreadsheets).
# 3.12. Tissue proces sing / Slide preparation
# The tissues were placed in labelled cassette s and placed in an automated tissue processor and taken through several stages of alcohol dehydration, solvent clearing and wax infiltration.
# Infiltrated tissues were embedded in wax blo ck s, which were sectioned on a microtome at between 4 and 6 µm. Sections were placed on pre-labelled glass slides and stained with haematoxylin and eo sin (H&E). Stained section s were dehydrated, then solvent cl eared and […]
# Histopathological examinations were p erformed on all animals in the vehicle control and high dose treated groups (main study) on the following tissues/organs: adrenal glands, bone marrow, brain, epididymis, heart, kidney, liver, lung, lymph node: mesenteric, prostate, seminal v esicle s with coagulating glands, small and l arge intesti ne (including Peyer’s patches), spinal cord, spleen, stomach, thymus, thyroid gland, trachea, testes and urinary bladder. Slides were evaluated for histology change s under light microscopy at a magnification of 100 to 1000 times.
# Individual histopathology results and a summar y are attached a s an app endix to the report (Appendix E Histopathology).
# 3.14. Statistical analyses
# Clinical observations, detailed clinical observations, functional observations, blood and urine analyses and histopathology were summarised by descriptive analysis.
# Statistical analyses, consisting of unpaired t-tests, were performed on measured variables: percentage body weight gain s, food consumption and organ weights as a percentage of body weight. A significance level of P < 0.05 was used for all tests.
# St Geo rge C lini c al S chool
# [3] = 28-day oral toxicity study: biochemistry analysis
# Procedure: as §1
# For each blood sampling, the blood was divided into two aliquots: (i) one was placed into a tube containing EDTA (for whole blood and EDTA plasma), (ii) one aliquot into a Li-heparin tube. […]
# Results and methods of analysis were attached in an appendix to the report (Appendix D Haematology and Biochemistry). Blood smear s for cell morphology were prepared. […]
# 3.9.2. Biochemistry analysis
# The following parameters were analysed: glucose (Glu), urea, creatinine (Creat), total protein (TP), albumin (ALB), albumin/globulin ratio (A:G), total bilirubin (TBil), alkaline phosphatase (ALP), aspartate aminotransferase (AST), alanine aminotransferase (ALT), creatine kinase (CK), chole sterol (Chol), calcium (Ca), phosphate (Phos), Ca:P ratio, sodium (Na), potassium (K), Na:K ratio, chloride (Cl), globulin (Glob), gamma glutamyl transferase (GGT) and triglycerides (Trig).
# as §2, §3
# [4] = Day 43, Gr 5 recovery, 20 mg/kg
compound,measurement,setting,value
"CC(C)C[C@@H]1NC(=O)[C@H](Cc2ccc3ccccc3c2)NC(=O)[C@H](CCCNC(=N)N)NC(=O)[C@H](Cc2ccc3ccccc3c2)NC(=O)[C@H](CO)NC1=O [c2, cyclo-((2-Nal)-Leu-Ser-(2-Nal)-Arg)] (cyclo([2Nal]LS[2Nal]R))",Hb,"[1]; Day 29, Gr 2, 1 mg/kg",157 ± 4.7 g/L
same,PLT,"[1]; Day 29, Gr 2, 1 mg/kg",1184 ± 127.7 x 109 / L
same,MCHC,"[1]; Day 29, Gr 2, 1 mg/kg",344 ± 5.1 g/L
same,Hb,"[1]; Day 29, Gr 3, 20 mg/kg",159 ± 3.0 g/L
same,PLT,"[1]; Day 29, Gr 3, 20 mg/kg",1191 ± 93.8 x 109 / L
same,MCHC,"[1]; Day 29, Gr 3, 20 mg/kg",351 ± 4.0 g/L
same,blood haematology,[1]; Day 29 and Day 43,no obvious test item related effect
same,Baso,[1]; [4],0 L⁻¹
same,Hb,[1]; [4],154 ± 1.8 g/L
same,PLT,[1]; [4],1182 ± 143.7 x 109 / L
same,MCHC,[1]; [4],353 ± 4.2 g/L
same,histopathology: large intestine: colon,[2],No treatment-related differences
same,histopathology: liver,[2],No treatment-related differences
same,histopathology: small intestine: ileum,[2],No treatment-related differences
same,histopathology: stomach,[2],No treatment-related differences
same,ALT (serum alanine transaminase),[3]; 1 mg/kg,61.1 ± 15.53 IU/L
same,CK (serum creatine kinase),[3]; 1 mg/kg,164 ± 47.4 IU/L
same,K (serum potassium),[3]; 1 mg/kg,3.59 ± 0.137 mM
same,Na/K ratio,[3]; 1 mg/kg,40.5 ± 1.59
same,ALT (serum alanine transaminase),[3]; 20 mg/kg,64.7 ± 19.01 IU/L
same,CK (serum creatine kinase),[3]; 20 mg/kg,140 ± 34.4 IU/L
same,K (serum potassium),[3]; 20 mg/kg,3.66 ± 0.295 mM
same,Na/K ratio,[3]; 20 mg/kg,39.9 ± 3.16
same,ALP,"[3]; Day 29, Gr 2, 1 mg/kg",219 ± 37.4 IU/L
same,AST,"[3]; Day 29, Gr 2, 1 mg/kg",173 ± 69.4 IU/L
same,CK,"[3]; Day 29, Gr 2, 1 mg/kg",164 ± 47.4 IU/L
same,Na,"[3]; Day 29, Gr 2, 1 mg/kg",145 ± 0.7 mmol/L
same,ALP,"[3]; Day 29, Gr 3, 20 mg/kg",234 ± 35.7 IU/L
same,ALT,"[3]; Day 29, Gr 3, 20 mg/kg",64.7 ± 19.01 IU/L
same,AST,"[3]; Day 29, Gr 3, 20 mg/kg",163 ± 76.8 IU/L
same,CK,"[3]; Day 29, Gr 3, 20 mg/kg",140 ± 34.4 IU/L
same,Na,"[3]; Day 29, Gr 3, 20 mg/kg",145 ± 0.8 mmol/L
same,ALP,[3]; [4],144 ± 24.2 IU/L
same,ALT,[3]; [4],62 ± 20.2 IU/L
same,AST,[3]; [4],236 ± 106.7 IU/L
same,CK,[3]; [4],117 ± 36.0 IU/L
same,Na,[3]; [4],144 ± 0.4 mmol/L
same,TP,[3]; [4],62 ± 1.7 g/L
same,Cl,"[3]; rat, in vivo, 1 mg/kg",101 ± 1.2 mmol/L
